Reference: PubChem BioAssay AID228 (DTP/NCI, 2004)
Several values for one entry are separate records, joined by “and”; a condition that tells them apart may be missing. Identical values can stand only once. Results filed as inconclusive are left out.

Tested on: BDF1 mice, Friend leukemia sc, tumor weight T/C
Assay: NCI In Vivo Anticancer Drug Screen. Data for tumor model Friend Virus Leukemia (Solid) (subcutaneous) in B6D2F1 (BDF1) mice
Details: endpoint: mean tumor weight, higher = larger tumour
Method: The antitumor activity of compounds was measured in mice bearing transplantable tumors. Survival or tumor size were measured and the results are expressed as the measurement made in the treated group (T) divided by the measurement made in the vehicle treated control group (C). The tumor model used in this assay is Friend Virus Leukemia (Solid) (subcutaneous) in B6D2F1 (BDF1) mice

[1] = dose: 27.0 mg/kg/injection, schedule: Q01DX011 (ip), vehicle: carboxymethylcellulose (CMC)
[2] = dose: 50.0 mg/kg/injection, schedule: Q01DX011 (ip), vehicle: carboxymethylcellulose (CMC)
[3] = dose: 100.0 mg/kg/injection, schedule: Q01DX011 (ip), vehicle: carboxymethylcellulose (CMC)
[4] = dose: 200.0 mg/kg/injection, schedule: Q01DX011 (ip), vehicle: carboxymethylcellulose (CMC)
[5] = dose: 75.0 mg/kg/injection, schedule: Q01DX011 (sc), vehicle: steriod suspending solution
[6] = dose: 150.0 mg/kg/injection, schedule: Q01DX011 (sc), vehicle: steriod suspending solution
[7] = dose: 300.0 mg/kg/injection, schedule: Q01DX011 (sc), vehicle: steriod suspending solution
[8] = dose: 5.0 mg/kg/injection, schedule: Q01DX011 (ip), vehicle: carboxymethylcellulose (CMC)

## CS(=O)(=O)OCCCCOS(C)(=O)=O
dose: 6.62 mg/kg/injection, schedule: Q01DX011 (ip), vehicle: carboxymethylcellulose (CMC)
  T/C: 107 % of control
dose: 7.0 mg/kg/injection, schedule: Q01DX011 (ip), vehicle: carboxymethylcellulose (CMC)
  T/C: 65 % of control
dose: 13.25 mg/kg/injection, schedule: Q01DX011 (ip), vehicle: carboxymethylcellulose (CMC)
  T/C: 68 % of control
dose: 14.0 mg/kg/injection, schedule: Q01DX011 (ip), vehicle: carboxymethylcellulose (CMC)
  T/C: 91 % of control
dose: 26.5 mg/kg/injection, schedule: Q01DX011 (ip), vehicle: carboxymethylcellulose (CMC)
  T/C: 110 % of control
[1]
  T/C: 55 % of control
dose: 53.0 mg/kg/injection, schedule: Q01DX011 (ip), vehicle: carboxymethylcellulose (CMC)
  T/C: 66 % of control

## C=CC1CN2CCC1CC2C(O)c1ccnc2ccc(OC)cc12 (configuration not stated)
[1]
  T/C: 104 % of control
dose: 27.0 mg/kg/injection, schedule: Q01DX011 (ip), vehicle: other
  T/C: 202 % of control
dose: 27.5 mg/kg/injection, schedule: Q01DX011 (ip), vehicle: other
  T/C: 226 % of control
dose: 55.0 mg/kg/injection, schedule: Q01DX011 (ip), vehicle: carboxymethylcellulose (CMC)
  T/C: 114 % of control
dose: 55.0 mg/kg/injection, schedule: Q01DX011 (ip), vehicle: other
  T/C: 263 % of control
dose: 110.0 mg/kg/injection, schedule: Q01DX011 (ip), vehicle: other
  T/C: 105 % of control and 219 % of control
dose: 220.0 mg/kg/injection, schedule: Q01DX011 (ip), vehicle: carboxymethylcellulose (CMC)
  T/C: 90 % of control
dose: 220.0 mg/kg/injection, schedule: Q01DX011 (ip), vehicle: other
  T/C: 204 % of control

## Oc1ccc2ccccc2c1N=Nc1ccccc1
dose: 25.0 mg/kg/injection, schedule: Q01DX011 (ip), vehicle: carboxymethylcellulose (CMC)
  T/C: 90 % of control
[2]
  T/C: 56 % of control
[3]
  T/C: 41 % of control and 47 % of control
[4]
  T/C: 65 % of control and 47 % of control

## O=c1[nH]cc(F)c(=O)[nH]1
dose: 3.0 mg/kg/injection, schedule: Q01DX011 (ip), vehicle: carboxymethylcellulose (CMC)
  T/C: 84 % of control
dose: 3.3 mg/kg/injection, schedule: Q01DX011 (ip), vehicle: carboxymethylcellulose (CMC)
  T/C: 101 % of control
dose: 6.0 mg/kg/injection, schedule: Q01DX011 (ip), vehicle: carboxymethylcellulose (CMC)
  T/C: 66 % of control and 44 % of control
dose: 6.7 mg/kg/injection, schedule: Q01DX011 (ip), vehicle: carboxymethylcellulose (CMC)
  T/C: 83 % of control
dose: 13.5 mg/kg/injection, schedule: Q01DX011 (ip), vehicle: carboxymethylcellulose (CMC)
  T/C: 69 % of control and 71 % of control
dose: 18.0 mg/kg/injection, schedule: Q01DX011 (ip), vehicle: carboxymethylcellulose (CMC)
  T/C: 93 % of control
[1]
  T/C: 22 % of control and 28 % of control

## NC(Cc1cccs1)C(=O)O (configuration not stated)
dose: 250.0 mg/kg/injection, schedule: Q01DX011 (ip), vehicle: carboxymethylcellulose (CMC)
  T/C: 112 % of control

## CC(=O)[C@H]1CC[C@H]2[C@@H]3CCC4=CC(=O)[C@H](C)C[C@]4(C)[C@@]3(F)[C@@H](O)C[C@]12C
dose: 9.5 mg/kg/injection, schedule: Q01DX011 (sc), vehicle: steriod suspending solution
  T/C: 71 % of control
dose: 19.0 mg/kg/injection, schedule: Q01DX011 (sc), vehicle: steriod suspending solution
  T/C: 50 % of control
[5]
  T/C: 25 % of control and 42 % of control and 46 % of control
[6]
  T/C: 28 % of control
[7]
  T/C: 19 % of control

## CN1CCC23c4c5ccc(O)c4OC2C(O)C=CC3C1C5 (configuration not stated)
dose: 62.0 mg/kg/injection, schedule: Q01DX011 (ip), vehicle: saline
  T/C: 116 % of control
dose: 125.0 mg/kg/injection, schedule: Q01DX011 (ip), vehicle: saline
  T/C: 172 % of control
dose: 250.0 mg/kg/injection, schedule: Q01DX011 (ip), vehicle: saline
  T/C: 118 % of control

## O=C(O)CCc1c[nH]c2ccc(N(CCCl)CCCl)cc12
dose: 1.2 mg/kg/injection, schedule: Q01DX011 (ip), vehicle: carboxymethylcellulose (CMC)
  T/C: 107 % of control
dose: 2.5 mg/kg/injection, schedule: Q01DX011 (ip), vehicle: carboxymethylcellulose (CMC)
  T/C: 92 % of control
[8]
  T/C: 114 % of control

## O=c1c[n+](-c2ccccc2)[nH]o1
dose: 22.5 mg/kg/injection, schedule: Q01DX011 (ip), vehicle: carboxymethylcellulose (CMC)
  T/C: 89 % of control
dose: 45.0 mg/kg/injection, schedule: Q01DX011 (ip), vehicle: carboxymethylcellulose (CMC)
  T/C: 76 % of control
dose: 90.0 mg/kg/injection, schedule: Q01DX011 (ip), vehicle: carboxymethylcellulose (CMC)
  T/C: 74 % of control
dose: 180.0 mg/kg/injection, schedule: Q01DX011 (ip), vehicle: carboxymethylcellulose (CMC)
  T/C: 78 % of control

## CS(=O)(=O)OCCCOS(C)(=O)=O
dose: 15.0 mg/kg/injection, schedule: Q01DX011 (ip), vehicle: carboxymethylcellulose (CMC)
  T/C: 100 % of control
dose: 30.0 mg/kg/injection, schedule: Q01DX011 (ip), vehicle: carboxymethylcellulose (CMC)
  T/C: 98 % of control
dose: 60.0 mg/kg/injection, schedule: Q01DX011 (ip), vehicle: carboxymethylcellulose (CMC)
  T/C: 31 % of control and 46 % of control
dose: 120.0 mg/kg/injection, schedule: Q01DX011 (ip), vehicle: carboxymethylcellulose (CMC)
  T/C: 22 % of control

## CC1=C2C(=C[C@@](C)(CO)[C@@H]2O)C(=O)[C@](C)(O)C12CC2
dose: 7.5 micrograms/kg/injection, schedule: Q01DX011 (ip), vehicle: carboxymethylcellulose (CMC)
  T/C: 121 % of control
dose: 15.0 micrograms/kg/injection, schedule: Q01DX011 (ip), vehicle: carboxymethylcellulose (CMC)
  T/C: 91 % of control
dose: 30.0 micrograms/kg/injection, schedule: Q01DX011 (ip), vehicle: carboxymethylcellulose (CMC)
  T/C: 69 % of control

## O=C1NC2C(NC(=O)N2Cl)N1Cl (configuration not stated)
dose: 20.0 mg/kg/injection, schedule: Q01DX011 (ip), vehicle: saline
  T/C: 105 % of control
dose: 40.0 mg/kg/injection, schedule: Q01DX011 (ip), vehicle: saline
  T/C: 103 % of control

## S=C(N=Nc1ccccc1)NNc1ccccc1
dose: 37.5 mg/kg/injection, schedule: Q01DX011 (ip), vehicle: carboxymethylcellulose (CMC)
  T/C: 92 % of control

## Cc1cc(N(CCCl)CCCl)ccc1C=Nc1ccccc1-c1ccccc1
[8]
  T/C: 54 % of control
dose: 10.0 mg/kg/injection, schedule: Q01DX011 (ip), vehicle: carboxymethylcellulose (CMC)
  T/C: 70 % of control
dose: 20.0 mg/kg/injection, schedule: Q01DX011 (ip), vehicle: carboxymethylcellulose (CMC)
  T/C: 104 % of control
dose: 40.0 mg/kg/injection, schedule: Q01DX011 (ip), vehicle: carboxymethylcellulose (CMC)
  T/C: 60 % of control
dose: 80.0 mg/kg/injection, schedule: Q01DX011 (ip), vehicle: carboxymethylcellulose (CMC)
  T/C: 77 % of control

## NC(=O)N(CCCl)N=O
dose: 1.0 mg/kg/injection, schedule: Q01DX011 (ip), vehicle: carboxymethylcellulose (CMC)
  T/C: 104 % of control
dose: 2.0 mg/kg/injection, schedule: Q01DX011 (ip), vehicle: carboxymethylcellulose (CMC)
  T/C: 101 % of control
dose: 4.0 mg/kg/injection, schedule: Q01DX011 (ip), vehicle: carboxymethylcellulose (CMC)
  T/C: 78 % of control

## NC(=O)NO
dose: 16.0 mg/kg/injection, schedule: Q01DX011 (ip), vehicle: carboxymethylcellulose (CMC)
  T/C: 91 % of control
dose: 32.0 mg/kg/injection, schedule: Q01DX011 (ip), vehicle: carboxymethylcellulose (CMC)
  T/C: 50 % of control
dose: 32.0 mg/kg/injection, schedule: Q01DX011 (ip), vehicle: saline
  T/C: 108 % of control
dose: 64.0 mg/kg/injection, schedule: Q01DX011 (ip), vehicle: carboxymethylcellulose (CMC)
  T/C: 8 % of control
dose: 64.0 mg/kg/injection, schedule: Q01DX011 (ip), vehicle: saline
  T/C: 7 % of control
dose: 96.0 mg/kg/injection, schedule: Q01DX011 (ip), vehicle: saline
  T/C: 3 % of control
dose: 128.0 mg/kg/injection, schedule: Q01DX011 (ip), vehicle: carboxymethylcellulose (CMC)
  T/C: 4 % of control
dose: 128.0 mg/kg/injection, schedule: Q01DX011 (ip), vehicle: saline
  T/C: 4 % of control

## Clc1ncnc2nc[nH]c12
[2]
  T/C: 71 % of control
[3]
  T/C: 47 % of control
[4]
  T/C: 18 % of control

## CC(C)NCC(=O)c1ccc(O)c(O)c1
dose: 50.0 mg/kg/injection, schedule: Q01DX011 (ip), vehicle: saline
  T/C: 95 % of control
dose: 100.0 mg/kg/injection, schedule: Q01DX011 (ip), vehicle: saline
  T/C: 110 % of control
dose: 200.0 mg/kg/injection, schedule: Q01DX011 (ip), vehicle: saline
  T/C: 102 % of control

## C[C@]12CCC(=O)C=C1CC[C@@H]1[C@@H]2[C@@H](O)C[C@@]2(C)[C@H]1CC[C@]2(O)C(=O)COC(=O)CCC(=O)O
[5]
  T/C: 52 % of control
[6]
  T/C: 49 % of control
[7]
  T/C: 27 % of control
